# Key:
# Experiment in all cases: cells
# [1] = tested on: NB69; type: functional, cell-based, Homo sapiens; conditions: Homo sapiens, NB69;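 further: growth inhibition of NB69 cells, determined by a cell viability assay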
# Description: SANGER: Inhibition of human NB69 cell growth in a cell viability assay.
# [2] = tested on: CW-2; type: functional, cell-based, Homo sapiens; conditions: Homo sapiens, CW-2;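 further: growth inhibition of CW-2 cells, read out by a cell viability assay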
# Description: SANGER: Inhibition of human CW-2 cell growth in a cell viability assay.
# [3] = tested on: NB10; type: functional, cell-based, Homo sapiens; conditions: Homo sapiens, NB10;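 further: growth inhibition of NB10 cells, read out by a cell viability assay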
# Description: SANGER: Inhibition of human NB10 cell growth in a cell viability assay.
# [4] = tested on: NCI-H510A; type: functional, cell-based; conditions: Homo sapiens;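 further: growth inhibition of NCI-H510A cells, read out with a cell viability assay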
# Description: SANGER: Inhibition of human NCI-H510A cell growth in a cell viability assay.
# [5] = tested on: COLO-320-HSR; type: functional, cell-based; conditions: Homo sapiens;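 further: growth inhibition of COLO-320-HSR cells, determined with a cell viability assay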
# Description: SANGER: Inhibition of human COLO-320-HSR cell growth in a cell viability assay.
# [6] = tested on: ML-2; type: functional, cell-based; conditions: Homo sapiens;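 further: growth inhibition of ML-2 cells, measured with a cell viability readout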
# Description: SANGER: Inhibition of human ML-2 cell growth in a cell viability assay.
# [7] = tested on: SK-MEL3; type: functional, cell-based, Homo sapiens, SK-MEL-3; conditions: Homo sapiens, SK-MEL3;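 further: growth inhibition of human SK-MEL-3 cells, read out with a cell viability assay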
# Description: SANGER: Inhibition of human SK-MEL-3 cell growth in a cell viability assay.
# [8] = tested on: SW1710; type: functional, cell-based, Homo sapiens; conditions: Homo sapiens, SW1710;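 further: growth inhibition of SW1710 cells, determined with a cell viability assay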
# Description: SANGER: Inhibition of human SW1710 cell growth in a cell viability assay.
# [9] = tested on: D-542MG; type: functional, cell-based, Homo sapiens; conditions: Homo sapiens, D-542MG
# Description: SANGER: Inhibition of human D-542MG cell growth in a cell viability assay.
# [10] = tested on: HPAF-II; type: functional, cell-based, Homo sapiens; conditions: Homo sapiens, HPAF-II;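 further: growth inhibition of HPAF-II cells, read out with a cell viability assay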
# Description: SANGER: Inhibition of human HPAF-II cell growth in a cell viability assay.
# [11] = tested on: UMUC3; type: functional, cell-based, Homo sapiens; conditions: Homo sapiens, UMUC3;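 further: growth inhibition of human UM-UC-3 cells, read out with a cell viability assay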
# Description: SANGER: Inhibition of human UM-UC-3 cell growth in a cell viability assay.
# [12] = tested on: NB13; type: functional, cell-based, Homo sapiens; conditions: Homo sapiens, NB13;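 further: cell viability readout measuring growth inhibition of human NB13 cells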
# Description: SANGER: Inhibition of human NB13 cell growth in a cell viability assay.
# [13] = tested on: KP-N-YN; type: functional, cell-based; conditions: Homo sapiens;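 further: growth inhibition of KP-N-YN cells, read out with a cell viability assay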
# Description: SANGER: Inhibition of human KP-N-YN cell growth in a cell viability assay.
# [14] = tested on: Detroit 562; type: functional, cell-based, Homo sapiens; conditions: Homo sapiens, Detroit 562;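 further: growth inhibition of human Detroit 562 cells, read out by a cell viability assay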
# Description: SANGER: Inhibition of human Detroit562 cell growth in a cell viability assay.
# [15] = tested on: NB6; type: functional, cell-based, Homo sapiens; conditions: Homo sapiens, NB6;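 further: growth inhibition of NB6 cells, read out by a cell viability assay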
# Description: SANGER: Inhibition of human NB6 cell growth in a cell viability assay.
# [16] = tested on: HT-144; type: functional, cell-based, Homo sapiens; conditions: Homo sapiens, HT-144
# Description: SANGER: Inhibition of human HT-144 cell growth in a cell viability assay.
# [17] = tested on: HCC38; type: functional, cell-based, Homo sapiens; conditions: Homo sapiens, HCC38;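 further: cell viability assay on the human HCC38 cell line, with IC50 marking the concentration that inhibits cell growth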
# Description: SANGER: Inhibition of human HCC38 cell growth in a cell viability assay.
# [18] = tested on: SW1463; type: functional, cell-based, Homo sapiens; conditions: Homo sapiens, SW1463;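 further: growth inhibition of SW1463 cells, determined with a cell viability assay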
# Description: SANGER: Inhibition of human SW1463 cell growth in a cell viability assay.
# [19] = tested on: LS-513; type: functional, cell-based, Homo sapiens; conditions: Homo sapiens, LS-513
# Description: SANGER: Inhibition of human LS-513 cell growth in a cell viability assay.
# [20] = tested on: NCI-H526; type: functional, cell-based; conditions: Homo sapiens;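 further: growth inhibition of the human NCI-H526 cell line, measured by a cell viability assay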
# Description: SANGER: Inhibition of human NCI-H526 cell growth in a cell viability assay.
# [21] = tested on: 639-V; type: functional, cell-based, Homo sapiens; conditions: Homo sapiens, 639-V;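 further: growth inhibition of 639-V cells, read out with a cell viability assay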
# Description: SANGER: Inhibition of human 639-V cell growth in a cell viability assay.
# [22] = tested on: SK-MES-1; type: functional, cell-based, Homo sapiens; conditions: Homo sapiens, SK-MES-1;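 further: growth inhibition of human SK-MES-1 cells, read out with a cell viability assay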
# Description: SANGER: Inhibition of human SK-MES-1 cell growth in a cell viability assay.
# [23] = tested on: CAS-1; type: functional, cell-based, Homo sapiens; conditions: Homo sapiens, CAS-1;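 further: growth inhibition of CAS-1 cells, measured with a cell viability assay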
# Description: SANGER: Inhibition of human CAS-1 cell growth in a cell viability assay.
# [24] = tested on: COLO-678; type: functional, cell-based, Homo sapiens; conditions: Homo sapiens, COLO-678
# Description: SANGER: Inhibition of human COLO-678 cell growth in a cell viability assay.
# [25] = tested on: LB996-RCC; type: functional, cell-based; conditions: Homo sapiens
# Description: SANGER: Inhibition of human LB996-RCC cell growth in a cell viability assay.
# [26] = tested on: L-428; type: functional, cell-based; conditions: Homo sapiens
# Description: SANGER: Inhibition of human L-428 cell growth in a cell viability assay.
# [27] = tested on: CAL-27; type: functional, cell-based, Homo sapiens; conditions: Homo sapiens, CAL-27;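 further: Viability-based readout, IC50 reflecting inhibition of CAL-27 cell growth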
# Description: SANGER: Inhibition of human CAL-27 cell growth in a cell viability assay.
# [28] = tested on: QIMR-WIL; type: functional, cell-based; conditions: Homo sapiens;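 further: growth inhibition of QIMR-WIL cells, read out with a cell viability assay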
# Description: SANGER: Inhibition of human QIMR-WIL cell growth in a cell viability assay.
# [29] = tested on: KU-19-19; type: functional, cell-based, Homo sapiens; conditions: Homo sapiens, KU-19-19
# Description: SANGER: Inhibition of human KU-19-19 cell growth in a cell viability assay.
# [30] = tested on: SCH; type: functional, cell-based, Homo sapiens; conditions: Homo sapiens, SCH;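 further: growth inhibition of human SCH cells, read out in a cell viability assay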
# Description: SANGER: Inhibition of human SCH cell growth in a cell viability assay.
# [31] = tested on: JEG-3; type: functional, cell-based, Homo sapiens; conditions: Homo sapiens, JEG-3;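 further: growth inhibition of human JEG-3 cells, read out with a cell viability assay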
# Description: SANGER: Inhibition of human JEG-3 cell growth in a cell viability assay.
# [32] = tested on: EW-3; type: functional, cell-based; conditions: Homo sapiens;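 further: cell viability assay read-out, IC50 reflects inhibition of growth of the EW-3 cells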
# Description: SANGER: Inhibition of human EW-3 cell growth in a cell viability assay.
# [33] = tested on: SK-MEL-24; type: functional, cell-based; conditions: Homo sapiens;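 further: growth inhibition read out by a cell viability assay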
# Description: SANGER: Inhibition of human SK-MEL-24 cell growth in a cell viability assay.
# [34] = tested on: FTC-133; type: functional, cell-based, Homo sapiens; conditions: Homo sapiens, FTC-133
# [35] = tested on: SK-MEL-30; type: functional, cell-based; conditions: Homo sapiens;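 further: growth inhibition of SK-MEL-30 cells, determined with a cell viability assay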
# Description: SANGER: Inhibition of human SK-MEL-30 cell growth in a cell viability assay.
# [36] = tested on: NCI-H2052; type: functional, cell-based, Homo sapiens; conditions: Homo sapiens, NCI-H2052;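 further: growth inhibition of NCI-H2052 cells, read out with a cell viability assay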
# Description: SANGER: Inhibition of human NCI-H2052 cell growth in a cell viability assay.
# [37] = tested on: NCI-H69; type: functional, cell-based; conditions: Homo sapiens;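 further: growth inhibition of the cell line, read out with a cell viability assay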
# Description: SANGER: Inhibition of human NCI-H69 cell growth in a cell viability assay.
# [38] = tested on: NCI-H441; type: functional, cell-based; conditions: Homo sapiens;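 further: growth inhibition of NCI-H441 cells, read out with a cell viability assay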
# Description: SANGER: Inhibition of human NCI-H441 cell growth in a cell viability assay.
# [39] = tested on: C3A; type: functional, cell-based, Homo sapiens; conditions: Homo sapiens, C3A;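 further: growth inhibition of C3A human cells, quantified with a cell viability readout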
# Description: SANGER: Inhibition of human C3A cell growth in a cell viability assay.
# [40] = tested on: VM-CUB-1; type: functional, cell-based; conditions: Homo sapiens;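 further: cell viability assay measuring growth inhibition of the human VM-CUB-1 cell line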
# Description: SANGER: Inhibition of human VM-CUB-1 cell growth in a cell viability assay.
# [41] = tested on: NCI-H1650; type: functional, cell-based, Homo sapiens; conditions: Homo sapiens, NCI-H1650;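 further: growth inhibition of human NCI-H1650 cells measured by a cell viability assay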
# Description: SANGER: Inhibition of human NCI-H1650 cell growth in a cell viability assay.
# [42] = tested on: MFE-280; type: functional, cell-based, Homo sapiens; conditions: Homo sapiens, MFE-280;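 further: growth inhibition of MFE-280 cells, determined with a cell viability readout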
# Description: SANGER: Inhibition of human MFE-280 cell growth in a cell viability assay.
# [43] = tested on: SW1088; type: functional, cell-based, Homo sapiens; conditions: Homo sapiens, SW1088;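 further: growth inhibition of human SW1088 cells, read out by a cell viability assay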
# Description: SANGER: Inhibition of human SW1088 cell growth in a cell viability assay.
# [44] = tested on: T47D; type: functional, cell-based, Homo sapiens; conditions: Homo sapiens, T47D;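 further: growth inhibition of human T47D cells, measured with a cell viability assay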
# Description: SANGER: Inhibition of human T47D cell growth in a cell viability assay.
# [45] = tested on: HOS; type: functional, cell-based, Homo sapiens; conditions: Homo sapiens, HOS;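 further: growth inhibition of human HOS cells, read out with a cell viability assay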
# Description: SANGER: Inhibition of human HOS cell growth in a cell viability assay.
# [46] = tested on: U-118-MG; type: functional, cell-based, Homo sapiens; conditions: Homo sapiens, U-118-MG
# Description: SANGER: Inhibition of human U-118-MG cell growth in a cell viability assay.
# [47] = tested on: 5637; type: functional, cell-based, Homo sapiens; conditions: Homo sapiens
# Description: SANGER: Inhibition of human 5637 cell growth in a cell viability assay.
# [48] = tested on: GAK; type: functional, cell-based, Homo sapiens; conditions: Homo sapiens, GAK;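 further: cell growth inhibition read out by a cell viability assay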
# Description: SANGER: Inhibition of human GAK cell growth in a cell viability assay.
# [49] = tested on: L-363; type: functional, cell-based; conditions: Homo sapiens
# Description: SANGER: Inhibition of human L-363 cell growth in a cell viability assay.
# [50] = tested on: HCT-116; type: functional, cell-based, Homo sapiens; conditions: Homo sapiens, HCT-116
# Description: SANGER: Inhibition of human HCT-116 cell growth in a cell viability assay.
# [51] = tested on: OMC-1; type: functional, cell-based, Homo sapiens; conditions: Homo sapiens, OMC-1;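 further: growth inhibition of the OMC-1 cell line, measured by a cell viability assay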
# Description: SANGER: Inhibition of human OMC-1 cell growth in a cell viability assay.
# [52] = tested on: GOTO; type: functional, cell-based, Homo sapiens; conditions: Homo sapiens, GOTO;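 further: growth inhibition of GOTO cells, read out by a cell viability assay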
# Description: SANGER: Inhibition of human GOTO cell growth in a cell viability assay.
# [53] = tested on: 769-P; type: functional, cell-based, Homo sapiens; conditions: Homo sapiens, 769-P
# Description: SANGER: Inhibition of human 769-P cell growth in a cell viability assay.
smiles,measurement,setting,value
Cn1cncc1[C@@](N)(c1ccc(Cl)cc1)c1ccc2c(c1)c(-c1cccc(Cl)c1)cc(=O)n2C [TIPIFARNIB],IC50,[1],> 16 µM
same,IC50,[2],> 16 µM
same,IC50,[3],11.7 µM
same,IC50,[4],> 16 µM
same,IC50,[5],13.6 µM
same,IC50,[6],< 0.0625 µM
same,IC50,[7],4.98 µM
same,IC50,[8],0.726 µM
same,IC50,[9],1.41 µM
same,IC50,[10],7.57 µM
same,IC50,[11],12.6 µM
same,IC50,[12],4.62 µM
same,IC50,[13],> 16 µM
same,IC50,[14],4.07 µM
same,IC50,[15],> 16 µM
same,IC50,[16],1.45 µM
same,IC50,[17],6.1 µM
same,IC50,[18],> 16 µM
same,IC50,[19],> 16 µM
same,IC50,[20],> 16 µM
same,IC50,[21],1.19 µM
same,IC50,[22],1.91 µM
same,IC50,[23],> 16 µM
same,IC50,[24],> 16 µM
same,IC50,[25],7.69 µM
same,IC50,[26],> 16 µM
same,IC50,[27],3.1 µM
same,IC50,[28],0.0163 µM
same,IC50,[29],> 16 µM
same,IC50,[30],> 16 µM
same,IC50,[31],8.61 µM
same,IC50,[32],> 16 µM
same,IC50,[33],1.71 µM
same,IC50,[34],> 16 µM
same,IC50,[35],3.74 µM
same,IC50,[36],> 16 µM
same,IC50,[37],> 16 µM
same,IC50,[38],13.6 µM
same,IC50,[39],4.64 µM
same,IC50,[40],5.76 µM
same,IC50,[41],> 16 µM
same,IC50,[42],> 16 µM
same,IC50,[43],8.57 µM
same,IC50,[44],> 16 µM
same,IC50,[45],4.1 µM
same,IC50,[46],> 16 µM
same,IC50,[47],1.03 µM
same,IC50,[48],3.8 µM
same,IC50,[49],> 16 µM
same,IC50,[50],4.88 µM
same,IC50,[51],6.49 µM
same,IC50,[52],> 16 µM
same,IC50,[53],4.19 µM
